Laboratory results taken from patent US5236942A, “5-aryl-4-alkyl-3H-1,2,4-triazole-3-thiones useful in the treatment of Altzheimer's dementia” (Merrell Dow Pharmaceuticals Inc., priority 1992, dated 1993).
Read-outs that look alike come from different tables or passages of the source. Each block holds one compound with its values, some of them ahead of it.

Experiments:
[1] = system: high affinity choline uptake (HACU); details: cited from earlier work; for effect on cortical or hippocampal HACU: after in vivo administration; for effect on HACU: acute administration i.p.
[2] = system: time dependent memory deficit in rats; experiment: Working memory in the T-maze, rats with 0- or 60-second delay; format: in vivo, Male Sprague-Dawley rats; details: for Number of errors (5 = chance response), 0-Second Delay / Number of errors (5 = chance response), 60-Second Delay: ten trials, mean ± SEM, n = 12
Method: The activity of these compounds in enhancing memory can also be confirmed in experiments that study working memory in rats by evaluating the acquisition of alternation behavior in a T-maze. The maze used has the shape of a T with alleys 16 cm wide and side walls 20 cm high, the main arm being 65 cm long and the two side arms 45 cm long. Male Sprague-Dawleyrats are maintained on a 23 hour food deprivation schedule and are tested each day (Monday-Friday), each trial in the maze consisting of two runs. The rat starts at the end of the main arm and runs to the choice point where it must turn either left or right. The first is a forced run where one arm of the T-maze has been blocked off at the choice point. The remaining arm has a bowl of sweetened condensed milk as reward. On the second run the rat has a free choice of arms and learns by experience that food reward is to be found down the arm not visited on the first run. Trials are run at 30-second intervals, and the arm choice on the forced run is varied at random between trials. Arm entry is defined by the rat's placing all four paws in the arm, and incorrect selection of the arm is scored as an error. […] Impairment of performance is achieved for testing the compound of this invention in two different ways. […] The table compares the number of incorrect responses by rats tested in trials wherein there is no delay after the forced run and trials wherein there is a 60-second delay. […] For this test, the number of errors expected by random response, i.e., the selection of the correct arm 50% of the time, is 5.

hippocampal slice = experiment: Electrophysiological assay of long term potentiation of the hippocampal slice
Source text: (§1) Experiments also compared 5-(3-fluorophenyl)-2,4-dimethyl-3H-1,2,4-triazole-3-thione, a compound of formula I, with a series of β-carbolines in an electrophysiological assay system involving long term potentiation of the hippocampal slice.

[3] = system: scopolamine-induced memory deficit in rats; experiment: Working memory in the T-maze, rats treated with scopolamine; format: in vivo, Male Sprague-Dawley rats; details: for Number of errors (12 = chance response), T-maze: 24 trials, mean ± SEM, n = 12
Method: The maze used has the shape of a T with alleys 16 cm wide and side walls 20 cm high, the main arm being 65 cm long and the two side arms 45 cm long. Male Sprague-Dawleyrats are maintained on a 23 hour food deprivation schedule and are tested each day (Monday-Friday), each trial in the maze consisting of two runs. The rat starts at the end of the main arm and runs to the choice point where it must turn either left or right. The first is a forced run where one arm of the T-maze has been blocked off at the choice point. The remaining arm has a bowl of sweetened condensed milk as reward. On the second run the rat has a free choice of arms and learns by experience that food reward is to be found down the arm not visited on the first run. Trials are run at 30-second intervals, and the arm choice on the forced run is varied at random between trials. Arm entry is defined by the rat's placing all four paws in the arm, and incorrect selection of the arm is scored as an error. Noncompleted trials, where the rat has not made a choice within 3 minutes, are included as errors.5-(3-Fluorophenyl)-2,4-dimethyl-3H-1,2,4-triazole-3-thione is administered one hour before the first trial of each session. Impairment of performance is achieved for testing the compound of this invention in two different ways.
In the trials summarized in Table 2, the amnestic muscarinic antagonist scopolamine is administered subcutaneously at a dose of 0.15 mg/kg 15-minutes before the first trial, and there is a delay of 5-10 seconds after the forced run before the second run of the trial. […] All values are expressed as the mean number of errors per block of twenty-four trials with groups of 12 animals±the standard error of the mean. For this test, the number of errors expected by random response, i.e., the selection of the correct arm 50% of the time, is 12.

[4] = system: carrier that mediates choline transport ([3H] hemicholinium-3 binding in rat brain membranes); experiment: [3H] hemicholinium-3 binding in rat brain membranes (cortex) after i.p. dosing of rats; set-up: species or system Male Sprague-Dawley rats; details: for Bmax ± SEM of [3H] hemicholinium-3 binding / Kd: rat brain cortex; for Kd: Kd of the radioligand, read-out: Kd ± SEM of [3H] hemicholinium-3 binding
Source text: Another measure of cholinergic activity is the binding of the radioligand [^3 H] hemicholinium-3, ([^3 H] HC-3) which labels the carrier that mediates choline transport. […] Therefore, the stimulation of [^3 H] HC-3 binding in vitro after treatment with drugs in vivo is also a marker for increased cholinergic activity, predictive of enhanced cognition in treated animals.
The pharmacological properties of these compounds as enhancers of memory and cognition and their relative potencies may be measured through their effect on neuro-transmitters in the brain. Since drugs that block GABA inhibition in the cholinergic neurons of the basal forebrain nuclei will stimulate cholinergic firing, thus stimulating memory, the capacity of the drugs to enhance cognition can be assessed by measuring the increase in cholinergic firing rate. The increase in cholinergic firing rate is measured indirectly by measuring choline uptake or [^3 H] hemicholinium-3 binding in brain cells taken from treated animals.
To test for [^3 H] hemicholinium-3 binding in brain cells from the brain cortex, drugs were dissolved in saline by sonication. Male Sprague-Dawley rats were dosed i.p. and sacrificed by decapitation 60 min after injection. The brains were removed and dissected, and tissue was homogenized in 20 volumes of ice-cold buffer and stored frozen until assayed. Binding was measured by incubating the tissue with varying concentrations of [^3 H]hemicholinium-3 in an isotonic Tris buffer (pH 7.4) for 60 min at room temperature. The incubation was terminated by rapid filtration through Whatman GF/B filters. After drying, the filters were placed in scintillation cocktail and radioactivity was determined using a Beckman scintillation counter. In two experiments, the values for the Kd and Bmax were determined by nonlinear curve-fitting and the average values for samples of 3 or more animals reported.

memory in mice = details: versus normal vehicle-treated control mice; cited from earlier work
[5] = system: hippocampal high affinity choline uptake; details: mice; cited from earlier work
benzodiazepine receptor = experiment: Inverse agonism at the benzodiazepine receptor, in the hippocampal slice tests; format: cell-based; details: in these tests
Source text: as §1

[6] = 1 mg/kg i.p., n = 4, 60 min after injection
[7] = 2.5 mg/kg i.p., n = 4, 60 min after injection
[8] = 25 mg/kg i.p., n = 3, 60 min after injection
[9] = 25 mg/kg i.p., n = 3, vs saline (Bmax 11.9)
[10] = higher concentrations / high doses
[11] = 5 mg/kg i.p., n = 7, 60 min after injection

SMILES: NC(=O)CN1CC(O)CC1=O (stereo not drawn) [oxiracetam]
effect on cortical or hippocampal HACU [1]: stimulate cortical or hippocampal HACU

Bmax ± SEM of [3H] hemicholinium-3 binding [4, 6]: 20.3 ± 1.2 fmol/mg Protein
% Increase in Bmax ([4]; 1 mg/kg i.p., n = 4, vs saline (Bmax 9.7)): 109%
Bmax ± SEM of [3H] hemicholinium-3 binding [4, 7]: 15.2 ± 3.0 fmol/mg Protein
% Increase in Bmax ([4]; 2.5 mg/kg i.p., n = 4, vs saline (Bmax 9.7)): 57%
Kd [4, 6]: 3.8 ± 0.6 nM
Kd [4, 7]: 6.5 ± 1.8 nM
SMILES: Cn1nc(-c2cccc(F)c2)n(C)c1=S [5-(3-Fluorophenyl)-2,4-dimethyl-3H-1,2,4-triazole-3-thione]
Number of errors (5 = chance response), 0-Second Delay ([2]; 1 mg/kg): 0.50 ± 0.26
Number of errors (5 = chance response), 60-Second Delay ([2]; 1 mg/kg, * p < 0.05 vs 0 seconds delay): 4.42 ± 0.47
Number of errors (5 = chance response), 0-Second Delay ([2]; 5 mg/kg): 0.67 ± 0.33
Number of errors (5 = chance response), 60-Second Delay ([2]; 5 mg/kg, * p < 0.05 vs 0 seconds delay): 2.33 ± 0.50
Number of errors (5 = chance response), 0-Second Delay ([2]; 10 mg/kg): 0.58 ± 0.19
Number of errors (5 = chance response), 60-Second Delay ([2]; 10 mg/kg): 1.75 ± 0.43
reversal of time dependent deficit in the T-maze ([2]; 60-second delay): effectively reverses the time dependent deficit
epileptiform activity in the hippocampal slice (hippocampal slice): did not produce the epileptiform activity
Number of errors (12 = chance response), T-maze ([3]; 1 mg/kg with scopolamine 0.15 mg/kg, * p < 0.05 vs saline): 5.0 ± 0.26
reversal of scopolamine-induced memory deficit in the T-maze ([3]; 5 mg/kg): reverses the scopolamine-induced memory deficit
Number of errors (12 = chance response), T-maze ([3]; 5 mg/kg with scopolamine 0.15 mg/kg, + p < 0.05 vs scopolamine): 4.0 ± 0.8

SMILES: CC(C)N(CCNC(=O)CN1CCCC1=O)C(C)C [pramiracetam]
effect on cortical or hippocampal HACU [1]: stimulate cortical or hippocampal HACU

SMILES: CN1[C@@H]2C[C@@H](OC(=O)[C@H](CO)c3ccccc3)C[C@H]1[C@@H]1O[C@@H]12 [Scopolamine, reference compound]
Number of errors (12 = chance response), T-maze ([3]; scopolamine 0.15 mg/kg s.c. alone, ** p < 0.01 vs saline): 6.9 ± 0.7

SMILES: Cc1cc(-c2ccccc2)nnc1NCCN1CCOCC1 [minaprine]
effect on striatal, cortical and hippocampal HACU ([1]; 30 mg/kg acute dose): weak effect

Bmax ± SEM of [3H] hemicholinium-3 binding [4, 8]: 16.0 ± 3.0 fmol/mg Protein
% Increase in Bmax [4, 9]: 35%
Kd [4, 8]: 1.5 ± 0.1 nM
SMILES: Cn1nc(-c2cccc(C(F)(F)F)c2)n(C)c1=S [5-(3-Trifluoromethylphenyl)-2,4-dimethyl-3H-1,2,4-triazole-3-thione]

SMILES: CC(=C(CCOC(=O)C(C)C)SSC(CCOC(=O)C(C)C)=C(C)N(C=O)Cc1cnc(C)nc1N)N(C=O)Cc1cnc(C)nc1N (stereo in doubt) [sulbutiamine]
performance in operant conditioning memory task (memory in mice): performance was enhanced
hippocampal high affinity choline uptake [5]: increased

SMILES: CCc1c(C(=O)OC)ncc2[nH]c3cc(OC)c(OC)cc3c12 [methyl 6,7-dimethoxy-4-ethyl-β-carboline-3-carboxylate]
inverse agonist character (benzodiazepine receptor): full inverse agonists
epileptiform activity in the hippocampal slice (hippocampal slice; [10]): produced epileptiform activity

Bmax ± SEM of [3H] hemicholinium-3 binding [4, 11]: 19.0 ± 3.4 fmol/mg Protein
% Increase in Bmax ([4]; 5 mg/kg i.p., n = 7, vs saline (Bmax 11.9)): 60%
Kd [4, 11]: 2.8 ± 0.5 nM
SMILES: Cn1nc(-c2ccccc2)n(C)c1=S [5-phenyl-2,4-dimethyl-3H-1,2,4-triazole-3-thione]

SMILES: CN(C)CCC=C1c2ccccc2CCc2ccccc21 [amitriptyline]
effect on HACU [1]: no effect

SMILES: CC(C)(CO)[C@@H](O)C(=O)NCCCC(=O)O [pantoyl-GABA]
effect on cortical or hippocampal HACU [1]: stimulate cortical or hippocampal HACU

Bmax ± SEM of [3H] hemicholinium-3 binding [4, 8]: 18.7 ± 3.2 fmol/mg Protein
% Increase in Bmax [4, 9]: 57%
Kd [4, 8]: 2.14 ± 0.7 nM
SMILES: Cn1c(-c2ccccc2)n[nH]c1=S [5-Phenyl-4-methyl-3H-1,2,4-triazole-3-thione]

SMILES: CNCCCN1c2ccccc2CCc2ccccc21 [desipramine]
effect on HACU [1]: no effect

SMILES: COC(=O)c1cc2c(cn1)[nH]c1ccccc12 [methyl β-carboline-3-carboxylate]
inverse agonist character (benzodiazepine receptor): full inverse agonists
epileptiform activity in the hippocampal slice (hippocampal slice; [10]): produced epileptiform activity

inverse agonist character (benzodiazepine receptor): partial inverse agonist
epileptiform activity in the hippocampal slice (hippocampal slice): produced epileptiform activity
SMILES: CNC(=O)c1cc2c(cn1)[nH]c1ccccc12 [N-methyl-β-carboline-3-carboxamide]

SMILES: CCOC(=O)c1cc2c(cn1)[nH]c1ccccc12 [ethyl β-carboline-3-carboxylate]
inverse agonist character (benzodiazepine receptor): full inverse agonists
epileptiform activity in the hippocampal slice (hippocampal slice; [10]): produced epileptiform activity

SMILES: CCOc1ccccc1OCC1CNCCO1 (stereo not drawn) [viloxazine]
effect on HACU [1]: no effect

SMILES: CN(C)CCCN1c2ccccc2CCc2ccccc21 [imipramine]
effect on HACU [1]: no effect
